Here are results for twelve compounds from PMC8985489 (Alzheimer's & Dementia : Translational Research & Clinical …, 2022).

One assay addresses Human Recombinant IDO-1 (Homo sapiens, UniProt P14902). As to the kind of experiment: HR-IDO-1 enzymatic inhibition assay. The assay is classed as biochemical.
The target of assay [1] is INF-γ-induced IDO-1 activity (Homo sapiens, UniProt P14902). As to the kind of experiment: INF-γ-induced IDO-1 activity. The assay is classed as cell-based.
A further assay addresses biotinylated Aβ1-42 (Homo sapiens, UniProt P05067). In words: Aβ anti-oligomerization assay. The assay is classed as biochemical.
Assay [2] deals with T1, Aβ1-40 (Homo sapiens, UniProt P05067). In words: Circular dichroism. The assay is classed as biochemical. A general note: Circular dichroism is widely used to follow secondary structure.
T1 sequence (P05067 672-711 limits assumed): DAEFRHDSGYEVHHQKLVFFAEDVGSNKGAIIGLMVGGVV
Assay [3] concerns the target T1, Aβ1-40. As to the kind of experiment: Thioflavin T. The assay is classed as biochemical.
In assay [4] the test system is IL-1β production and release from microglia. In words: IL-1β production and release from microglia. The assay is classed as cell-based. Conditions: at 50 and 100 μM.
For another assay, the system named is IDO-1. To be noted: cited from earlier work.
For assay [5], the system named is SK-N-AS neuroblastoma cells. In words: Aβ production in mammalian cells. Conditions: SK-N-AS incubated with 1 μg/ml, within 3 h. The class given is cell-based, human.

Chain of biotinylated Aβ1-42 (P05067 672-713): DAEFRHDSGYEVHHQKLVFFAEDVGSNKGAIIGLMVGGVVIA
Chain of INF-γ-induced IDO-1 activity (P14902 whole entry): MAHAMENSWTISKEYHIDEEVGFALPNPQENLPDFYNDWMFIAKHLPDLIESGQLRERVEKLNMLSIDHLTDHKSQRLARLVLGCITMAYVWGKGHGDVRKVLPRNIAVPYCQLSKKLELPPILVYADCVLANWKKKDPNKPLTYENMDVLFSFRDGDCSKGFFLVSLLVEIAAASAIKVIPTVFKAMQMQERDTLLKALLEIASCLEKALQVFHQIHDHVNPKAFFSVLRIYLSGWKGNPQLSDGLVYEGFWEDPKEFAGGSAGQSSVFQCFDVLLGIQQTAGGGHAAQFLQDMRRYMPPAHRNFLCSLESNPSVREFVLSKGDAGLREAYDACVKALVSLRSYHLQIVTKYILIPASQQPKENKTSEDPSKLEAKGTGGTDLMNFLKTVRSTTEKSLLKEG
Chain of Human Recombinant IDO-1 (P14902 whole entry): as above

In general, IC50 refers to the concentration that inhibits the measured activity by half. Take `COc1ccc2[nH]cc(/C=C/c3ccc(O)cc3)c2c1` [4b, (E)‐4‐(2‐[5‐methoxy‐1H‐indol‐3‐yl]vinyl)phenol]: the IC50 came out at 2.8 µM at Human Recombinant IDO-1, 10.8 µM in assay [1] and 6.5 µM against biotinylated Aβ1-42.
Take `O=C(O)/C=C/c1ccc(O)cc1` [4‐coumarate]: the “Aβ anti-aggregant activity in CD assay” value at Aβ1-40 [2] is recorded as “exhibited Aβ anti‐aggregant activities”. For the same compound, the “Aβ anti-aggregant activity in ThT assay” value on Aβ1-40 [3] is “exhibited Aβ anti‐aggregant activities”.
Take `NCCc1c[nH]c2ccc(O)cc12` [5‐hydroxytryptamine]: the “IL-1β production and release from microglia” value in assay [4] is recorded as “modulated”.
Consider `O=C(O)/C=C/c1ccc(O)c(O)c1` [caffeiate], for which the “Aβ anti-aggregant activity in CD assay” value at Aβ1-40 [2] is “exhibited Aβ anti‐aggregant activities”. In addition, at Aβ1-40 [3], the “Aβ anti-aggregant activity in ThT assay” value is “exhibited Aβ anti‐aggregant activities”.
For the compound `COc1cc(/C=C/C(=O)O)ccc1O` [ferulate], at Aβ1-40 [2], the “Aβ anti-aggregant activity in CD assay” value is on record as “exhibited Aβ anti‐aggregant activities”. The IDO-1 enzymatic activity result in the assay on IDO-1 was “shown to inhibit IDO‐1 enzymatic activity”. Also, the “Aβ anti-aggregant activity in ThT assay” value at Aβ1-40 [3] was “exhibited Aβ anti‐aggregant activities”.
Take `Oc1ccc(/C=C/c2cc(O)cc(O)c2)cc1` [resveratrol]: the “Aβ anti-aggregant activity in CD assay” value at Aβ1-40 [2] is “exhibited Aβ anti‐aggregant activities”. Besides, the “Aβ anti-aggregant activity in ThT assay” value on Aβ1-40 [3] is “exhibited Aβ anti‐aggregant activities”.
For `O=C(O)c1ccccc1O` [salicylate], at Aβ1-40 [2], the “Aβ anti-aggregant activity in CD assay” value is recorded as “exhibited Aβ anti‐aggregant activities”. For the same compound, the “Aβ anti-aggregant activity in ThT assay” value on Aβ1-40 [3] is “exhibited Aβ anti‐aggregant activities”.
On to `COc1cc(/C=C/C(=O)O)cc(OC)c1O` [sinapate], for which, at Aβ1-40 [2], the “Aβ anti-aggregant activity in CD assay” value is given as “exhibited Aβ anti‐aggregant activities”. In addition, the “Aβ anti-aggregant activity in ThT assay” value at Aβ1-40 [3] is “exhibited Aβ anti‐aggregant activities”.
Take `N[C@@H](Cc1c[nH]c2ccccc12)C(=O)O` [tryptophan]: the “activity in initial screen against Aβ aggregation” value on biotinylated Aβ1-42 (biotinylated Aβ1-42 anti-oligomerization screen) and at Aβ1-40 [3] (kinetic ThT Aβ1-40 anti-aggregation screen) was “inactive” in each case.
On to lipopolysaccharide [LPS], for which, in assay [5], the “Aβ concentrations in the cell lysate” value turned out to be 800 pg/mL.
The same measure, in the same setting: in the case of lipoteichoic acid [LTA] it was 800 pg/mL.
tannate: the “Aβ anti-aggregant activity in CD assay” value at Aβ1-40 [2] was “exhibited Aβ anti‐aggregant activities”. On Aβ1-40 [3], the “Aβ anti-aggregant activity in ThT assay” value is given as “exhibited Aβ anti‐aggregant activities”.
